# PubChem BioAssay AID1963964 (Molecular Pharmacology Branch, DTP, NCI, 2024)
# System: 997726-040-R-J2-PDC tumor spheroids, viability
# Test: Anticancer human tumor 997726-040-R-J2-PDC patient-derived squamous cell lung carcinoma cell line growth inhibition [PI3K]
# Details: spheroids with HUVEC and MSC; for IC50: curve of first compound; for viability, T/C: stronger effect = lower value
# Summary of the method: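 Tumor cells grown as multi-cell spheroids with HUVEC endothelial cells and MSC fibroblast-like stroma were treated with targeted agents combined with inavolisib, alpelisib, duvelisib or copanlisib. Doses fell in half-log steps from near clinical Cmax, else from 10 microM. Viability was measured.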
# 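Also: spheroids exposed to compounds for seven days before readout.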
smiles,measurement,setting,value
Cn1cnc2c(F)c(Nc3ccc(Br)cc3Cl)c(C(=O)NOCCO)cc21 + Cc1nc(NC(=O)N2CCCC2C(N)=O)sc1-c1ccnc(C(C)(C)C(F)(F)F)c1,IC50,second compound 0.0316 µM,129 nM
same,IC50,second compound 0.1 µM,66.2 nM
same,IC50,second compound 0.316 µM,< 9.49 nM
same,IC50,second compound 1 µM,< 9.49 nM
same,IC50,second compound 3.16 µM,< 9.49 nM
same,IC50,second compound 10 µM,< 9.49 nM
same,"viability, T/C","second compound 0.0316 µM, first compound 0.00949 µM",74.8%
same,"viability, T/C","second compound 0.0316 µM, first compound 0.03 µM",58.5%
same,"viability, T/C","second compound 0.0316 µM, first compound 0.0949 µM",53.5%
same,"viability, T/C","second compound 0.0316 µM, first compound 0.3 µM",41.7%
same,"viability, T/C","second compound 0.0316 µM, first compound 0.949 µM",45.9%
same,"viability, T/C","second compound 0.0316 µM, first compound 3 µM",34.1%
same,"viability, T/C","second compound 0.1 µM, first compound 0.00949 µM",67.6%
same,"viability, T/C","second compound 0.1 µM, first compound 0.03 µM",56.1%
same,"viability, T/C","second compound 0.1 µM, first compound 0.0949 µM",44.9%
same,"viability, T/C","second compound 0.1 µM, first compound 0.3 µM",40.5%
same,"viability, T/C","second compound 0.1 µM, first compound 0.949 µM",38.7%
same,"viability, T/C","second compound 0.1 µM, first compound 3 µM",28.5%
same,"viability, T/C","second compound 0.316 µM, first compound 0.00949 µM",51.1%
same,"viability, T/C","second compound 0.316 µM, first compound 0.03 µM",40.6%
same,"viability, T/C","second compound 0.316 µM, first compound 0.0949 µM",35.7%
same,"viability, T/C","second compound 0.316 µM, first compound 0.3 µM",34.3%
same,"viability, T/C","second compound 0.316 µM, first compound 0.949 µM",28.4%
same,"viability, T/C","second compound 0.316 µM, first compound 3 µM",22.2%
same,"viability, T/C","second compound 1 µM, first compound 0.00949 µM",36.7%
same,"viability, T/C","second compound 1 µM, first compound 0.03 µM",32.6%
same,"viability, T/C","second compound 1 µM, first compound 0.0949 µM",29.4%
same,"viability, T/C","second compound 1 µM, first compound 0.3 µM",25.3%
same,"viability, T/C","second compound 1 µM, first compound 0.949 µM",22.7%
same,"viability, T/C","second compound 1 µM, first compound 3 µM",21.2%
same,"viability, T/C","second compound 3.16 µM, first compound 0.00949 µM",24.8%
same,"viability, T/C","second compound 3.16 µM, first compound 0.03 µM",21.2%
same,"viability, T/C","second compound 3.16 µM, first compound 0.0949 µM",22.2%
same,"viability, T/C","second compound 3.16 µM, first compound 0.3 µM",20.9%
same,"viability, T/C","second compound 3.16 µM, first compound 0.949 µM",20.7%
same,"viability, T/C","second compound 3.16 µM, first compound 3 µM",14.3%
same,"viability, T/C","second compound 10 µM, first compound 0.00949 µM",17.8%
same,"viability, T/C","second compound 10 µM, first compound 0.03 µM",17.2%
same,"viability, T/C","second compound 10 µM, first compound 0.0949 µM",15.5%
same,"viability, T/C","second compound 10 µM, first compound 0.3 µM",15.3%
same,"viability, T/C","second compound 10 µM, first compound 0.949 µM",12.2%
same,"viability, T/C","second compound 10 µM, first compound 3 µM",7.26%
